Measured values from patent US20230357134A1, “AGENTS FOR USE IN THE TREATMENT OF AMYLOIDOSIS” (UCL BUSINESS LTD, priority 2020, published 2023).

Experiments:
[1] = target: T1, isolated wild type TTR (Homo sapiens, UniProt P02766); assay: Displacement of 125I-T4 from isolated wild type TTR in buffer; details: concentration of ligand reducing binding of 125I-T4 by TTR by 50%, 125 nM TTR, pH 8.0, overnight 4° C., mean of at least 3 replicates; for IC50: read-out: D50 buffer
T1 construct: the non-covalently associated protomers, of mass 13,761, each contain 127 residues; His6 (N); TEV cleavage site (N); made in house; host or cells: E. coli BL21 (DE3)
Protocol: 3. Evaluation of Ligand Activity Based on Capacity to Displace ^125I-Thyroxine (T4) from TTR in Buffer/Human Plasma 3.1 Displacement of ^125I-T4 from Isolated Wild Type TR.
Competition of ligands with T4 for binding by TTR was assayed quantitatively by a previously described procedure (Kolstoe et al., 2010). Briefly, a solution of 125 nM TTR in 0.1 M Tris-HCl, 0.1 M NaCl and 0.001 M EDTA buffer, pH 8.0, was incubated overnight at 4° C. in the presence of 1.07 nM ^125I T4 (1,200 μCi/μg, 200 μCi/ml, Perkin Elmer) and increasing concentrations of inhibitor (0-5 μM) in 40 μl final volume. ^125I T4 bound by TTR was separated from unbound T4 by gel filtration chromatography using Micro Bio Spin 6 columns (Bio-Rad) previously equilibrated with the reaction buffer containing 1% w/v BSA. After counting with a Wizard2 gamma counter (Perkin-Elmer) for 60 s, percentage binding was plotted against the logarithm of the inhibitor concentration, and D50 (concentration of ligand reducing the binding of T4 by TTR by 50%) was determined using a four parameters dose-response curve with GraphPad Prism 5 (Table 1).

[2] = target: T2, recombinant Val122Ile TTR (Homo sapiens, UniProt P02766, V142I); assay: Mechano-enzymatic fibrillogenesis, TTR amyloid by ThT emission fluorescence; type: biochemical; details: equimolar ligand, 96 h pellets, normalized to 100 % without ligand, mean (SD)
T2 construct: the non-covalently associated protomers, of mass 13,761, each contain 127 residues; His6 (N); TEV cleavage site (N); made in house; host or cells: E. coli BL21 (DE3)
Protocol: (§1) Briefly, fibrillogenesis of recombinant Val122Ile TTR at 0.5 mg/ml (9 μM) in PBS, pH 7.4 was carried out in glass vials stirred at 1,400 rpm (IKA magnetic stirrer) and 37° C. in the presence and in the absence of trypsin (5 ng/μl). […] Each ligand was tested at 4 different concentrations (4.5, 9, 18, 36 μM respectively) corresponding to the following drug/TTR molar ratios of 0.5:1, 1:1, 2:1 and 4:1. Several dilutions of the drug stock solutions were made in order to add the same volume of DMSO to each sample. Control samples without drug were added with the same volume of DMSO only. To allow complete binding of ligand by TTR each sample was incubated for 30 min at 37° C. before addition of trypsin. Spectrophotometric turbidity at 400 nm was used to monitor fibril formation over time until it reached a plateau at 96 h. Aggregation of TTR in the presence of equimolar ligand concentrations was quantified as spectrophotometric turbidity at 400 nm as a proportion of 100% for aggregation of the protein in the absence of ligands (Table 2).
At the end of the 96 h aggregation, pellets were harvested from each protein sample by 20 min centrifugation at 11,600 g, thoroughly rinsed with PBS to remove non-bound ligand, resuspended with 100 μl PBS, pH 7.4 containing 10 μM ThT in Costar 96-well black-wall plates. Bottom fluorescence values (excitation 440 nm, emission 480 nm) were recorded using a BMG LABTECH FLUostar Omega plate reader. Each value was normalized to the ThT signal of the TTR sample without ligand (Table 2)

[3] = target: T3, TTR in whole human plasma (Homo sapiens, UniProt P02766); assay: Displacement of 125I-T4 from TTR in normal human plasma; type: binding; details: wild type TTR, 30 min 37° C. with ligand, immunoprecipitation, mean of at least 3 replicates; for IC50: read-out: D50 plasma
T3 construct: TTR in whole plasma, from individuals homozygous for wild type TTR; from tissue; host or cells: whole human plasma
Protocol: 3.2 Displacement of ^125-T4 from TTR in Normal Human Plasma.
The displacement of ^125I-T4 from TTR in whole plasma, from individuals homozygous for wild type TTR, was studied by incubating plasma with each ligand at increasing concentrations for 30 min at 37° C., further incubation with […] followed by measurement of the radioactivity in the immunoprecipitate obtained with anti-TTR antibodies. […] Percentage binding was plotted against the logarithm of the inhibitor concentration, and D50 (concentration of ligand reducing the binding of T4 by TTR by 50%) was determined using a four parameter dose-response curve with GraphPad Prism 5 (Table 1).

[4] = target: T2, recombinant Val122Ile TTR; assay: Mechano-enzymatic fibrillogenesis, TTR aggregation by turbidity at 400 nm; type: biochemical; details: equimolar ligand, Val122Ile TTR 9 μM, trypsin, 96 h; 100 % = protein without ligand; mean (SD)
Protocol: as §1

Row | SMILES | IC50 [1] | % Aggregation (Fluorescence method) [2] | IC50 [3] | % Aggregation (Turbidity method) [4] | D50 plasma [3] | D50 buffer [1]
1 | O=C(O)CCc1cc(Cl)c(OCCOCCCOc2c(Cl)cc(-c3nc4ccc(C(=O)O)cc4o3)cc2Cl)c(Cl)c1 [Compound B29, 2-[4-[3-[2-[4-(2-carboxyethyl)-2,6-dichloro-phenoxy]ethoxy]propoxy]-3,5-dichloro-phenyl]-1,3-benzoxazole-6-carboxylic acid] | 0.08 µM | 19.2 (13.0) % | 3.6 µM | 7.62 (3.39) % | – | –
2 | O=C(O)CCc1cc(Cl)c(OCCCOCCCOc2ccc(-c3nc4ccc(C(=O)O)cc4o3)cc2Cl)c(Cl)c1 [Compound B15, 2-[4-[3-[3-[4-(2-carboxyethyl)-2,6-dichloro-phenoxy]propoxy]propoxy]-3-chlorophenyl]-1,3-benzoxazole-6-carboxylic acid] | 0.1 µM | 12.7 (5.73) % | 61 µM | 5.56 (0.75) % | – | –
3 | O=C(O)CCc1cc(Cl)c(OCC/C=C/CCOc2c(Cl)cc(Nc3ccccc3C(=O)O)cc2Cl)c(Cl)c1 [Compound B14, 2-[4-[(E)-6-[4-(2-carboxyethyl)-2,6-dichloro-phenoxy]hex-3-enoxy]-3,5-dichloro-anilino]benzoic acid] | – | 12.6 (3.17) % | – | 5.73 (0.50) % | – | –
4 | O=C(O)CCc1cc(Cl)c(OCC[C@H](O)[C@@H](O)CCOc2c(Cl)cc(Nc3ccccc3C(=O)O)cc2Cl)c(Cl)c1 [Compound B4, 2-[4-[(3S,4S)-6-[4-(2-carboxyethyl)-2,6-dichloro-phenoxy]-3,4-dihydroxy-hexoxy]-3,5-dichloro-anilino]benzoic acid] | 0.07 µM | 4.74 (2.93) % | 4.4 µM | 3.52 (1.14) % | – | –
5 | O=C(O)CCc1ccc(OCC[C@@H](O)[C@H](O)CCOc2c(Cl)cc(Nc3ccccc3C(=O)O)cc2Cl)c(Cl)c1 [Compound B21, 2-[4-[6-[4-(2-carboxyethyl)-2-chloro-phenoxy]-3,4-dihydroxy-hexoxy]-3,5-dichloro-anilino]benzoic acid] | 0.07 µM | 8.31 (6.09) % | 4.1 µM | 6.43 (3.09) % | – | –
6 | O=C(O)COCCOCCOCCOc1c(Cl)cc(Nc2ccccc2C(=O)O)cc1Cl [Compound B5, 2-[4-[2-[2-[2-(carboxymethoxy)ethoxy]ethoxy]ethoxy]-3,5-dichloro-anilino]benzoic acid] | 4.6 µM | 28.8 (13.4) % | 66.4 µM | 17.3 (14.8) % | – | –
7 | O=C(O)CCc1cc(Cl)c(OCOCCCOc2c(Cl)cc(Nc3ccccc3C(=O)O)cc2Cl)c(Cl)c1 [Compound B8, 2-[4-[3-[[4-(2-carboxyethyl)-2,6-dichloro-phenoxy]methoxy]propoxy]-3,5-dichloro-anilino]benzoic acid] | 2.06 µM | 11.7 (3.67) % | – | 6.35 (2.73) % | no binding | –
8 | O=C(O)CCc1cc(Cl)c(OCCCOCCOc2c(Cl)cc(Nc3cnncc3C(=O)O)cc2Cl)c(Cl)c1 [Compound B24, 5-[4-[2-[3-[4-(2-carboxyethyl)-2,6-dichloro-phenoxy]propoxy]ethoxy]-3,5-dichloro-anilino]pyridazine-4-carboxylic acid] | 0.14 µM | 10.6 (10.5) % | 7.6 µM | 6.60 (2.40) % | – | –
9 | O=C(O)CCc1cc(Cl)c(OCC/C=C/CCOc2c(Cl)cc(Nc3ncccc3C(=O)O)cc2Cl)c(Cl)c1 [Compound B13, (E)-2-((4-((6-(4-(2-carboxyethyl)-2,6-dichlorophenoxy)hex-3-en-1-yl)oxy)-3,5-dichlorophenyl)amino)nicotinic acid] | – | 9.76 (4.50) % | – | 5.31 (0.62) % | – | –
10 | O=C(O)CCc1cc(Cl)c(OCCCOCCOc2c(Cl)cc(-c3nc4ccc(C(=O)O)cc4o3)cc2Cl)c(Cl)c1 [Compound B28, 2-[4-[2-[3-[4-(2-carboxyethyl)-2,6-dichloro-phenoxy]propoxy]ethoxy]-3,5-dichloro-phenyl]-1,3-benzoxazole-6-carboxylic acid] | 0.08 µM | 24.5 (8.90) % | 20 µM | 9.30 (4.32) % | – | –
11 | O=C(O)CCc1cc(Cl)c(OCCCOCCCOc2c(Cl)cc(-c3nc4ccc(C(=O)O)cc4o3)cc2Cl)c(Cl)c1 [Compound B7, 2-[4-[3-[3-[4-(2-carboxyethyl)-2,6-dichloro-phenoxy]propoxy]propoxy]-3,5-dichloro-phenyl]-1,3-benzoxazole-6-carboxylicacid] | 0.1 µM | 8.23 (2.61) % | 18.4 µM | 4.99 (1.88) % | – | –
12 | Cc1n[nH]c(COCCCCOCCOc2c(Cl)cc(CCC(=O)O)cc2Cl)c1CCCOc1cc(C(=O)O)ccc1F [Compound B10, 3-[3-[5-[4-[2-[4-(2-carboxyethyl)-2,6-dichloro-phenoxy]ethoxy]butoxymethyl]-3-methyl-1H-pyrazol-4-yl]propoxy]-4-fluoro-benzoic acid] | 5.6 µM | 16.6 (nd) % | – | 14.88 (nd) % | no binding | –
13 | O=C(O)CCOCCCOCCCOCCCOc1c(Cl)cc(Nc2ccccc2C(=O)O)cc1Cl [Compound B6, 2-[4-[3-[3-[3-(2-carboxyethoxy)propoxy]propoxy]propoxy]-3,5-dichloro-anilino]benzoic acid] | 1.17 µM | 12.0 (4.44) % | 39.7 µM | 6.24 (1.71) % | – | –
14 | Cc1n[nH]c(COCCOCCCOc2c(Cl)cc(CCC(=O)O)cc2Cl)c1CCCOc1cc(C(=O)O)ccc1F [Compound B11, 3-[3-[5-[2-[3-[4-(2-carboxyethyl)-2,6-dichloro-phenoxy]propoxy]ethoxymethyl]-3-methyl-1H-pyrazol-4-yl]propoxy]-4-fluoro-benzoic acid] | 0.5 µM | – | – | – | no binding | –
15 | O=C(O)CCc1cc(Cl)c(OCC[C@H](O)[C@@H](O)CCOc2c(Cl)cc(Nc3ncccc3C(=O)O)cc2Cl)c(Cl)c1 (stereo in doubt) [Compound B3A, 2-[4-[(3S,4S)-6-[4-(2-carboxyethyl)-2,6-dichloro-phenoxy]-3,4-dihydroxy-hexoxy]-3,5-dichloro-anilino]pyridine-3-carboxylicacid] | – | 8.63 (5.17) % | – | 5.76 (2.32) % | – | –
16 | O=C(O)Cc1cc(Cl)c(OCCCOCCOc2c(Cl)cc(CC(=O)O)cc2Cl)c(Cl)c1 [Compound B33, reference compound] | – | 75 (30) % | – | – | – | No binding
